Laboratory results: publication PMC9916685, “Discovery of Small Molecule COX-1 and Akt Inhibitors as Anti-NSCLC Agents Endowed with Anti-Inflammatory Action” (International Journal of Molecular Sciences, 2023)

How the values were obtained:
COX-1 = target: T1, COX-1 (Ovis aries, UniProt P05979); assay: COX (ovine) colorimetric inhibitor screening assay, COX-1; format: biochemical; conditions: for IC50: ovine COX-1, colorimetric, triplicate, mean ± SD; for SI (IC50 for COX-1/IC50 for COX-2): selectivity index
T1 construct: purchased Cayman
T1 sequence (P05979 25-600): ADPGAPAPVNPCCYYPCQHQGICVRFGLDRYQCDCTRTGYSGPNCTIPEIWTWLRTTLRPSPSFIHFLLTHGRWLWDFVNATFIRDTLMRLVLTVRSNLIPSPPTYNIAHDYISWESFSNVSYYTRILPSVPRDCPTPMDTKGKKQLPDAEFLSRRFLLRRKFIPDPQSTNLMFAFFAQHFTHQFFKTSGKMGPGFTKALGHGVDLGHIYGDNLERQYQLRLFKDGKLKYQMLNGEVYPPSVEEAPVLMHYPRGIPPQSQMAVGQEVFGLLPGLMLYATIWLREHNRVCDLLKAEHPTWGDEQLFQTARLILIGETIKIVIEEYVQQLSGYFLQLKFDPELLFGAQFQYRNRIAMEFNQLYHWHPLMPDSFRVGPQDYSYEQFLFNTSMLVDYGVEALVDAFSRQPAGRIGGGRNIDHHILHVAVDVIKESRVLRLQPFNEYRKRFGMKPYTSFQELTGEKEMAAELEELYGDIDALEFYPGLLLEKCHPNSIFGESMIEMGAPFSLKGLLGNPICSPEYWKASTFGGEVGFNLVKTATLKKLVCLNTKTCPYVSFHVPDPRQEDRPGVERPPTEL
Procedure: (§1) COX (ovine) Colorimetric Inhibitor Screening Assay (Cayman, Ann Arbor, MI, USA) was conducted to detect the peroxidase component of COX-1 and COX-2 according to the manufacturer’s instructions. The assay was performed in triplicate. Half maximal inhibitory concentration (IC50) data (µM) were expressed as mean ± SD.

COX-2 = target: T2, COX-2 (Ovis aries, UniProt P79208); assay: COX (ovine) colorimetric inhibitor screening assay, COX-2; format: biochemical; conditions: ovine COX-2, colorimetric, triplicate, mean ± SD
T2 construct: purchased Cayman
T2 sequence (P79208 17-603): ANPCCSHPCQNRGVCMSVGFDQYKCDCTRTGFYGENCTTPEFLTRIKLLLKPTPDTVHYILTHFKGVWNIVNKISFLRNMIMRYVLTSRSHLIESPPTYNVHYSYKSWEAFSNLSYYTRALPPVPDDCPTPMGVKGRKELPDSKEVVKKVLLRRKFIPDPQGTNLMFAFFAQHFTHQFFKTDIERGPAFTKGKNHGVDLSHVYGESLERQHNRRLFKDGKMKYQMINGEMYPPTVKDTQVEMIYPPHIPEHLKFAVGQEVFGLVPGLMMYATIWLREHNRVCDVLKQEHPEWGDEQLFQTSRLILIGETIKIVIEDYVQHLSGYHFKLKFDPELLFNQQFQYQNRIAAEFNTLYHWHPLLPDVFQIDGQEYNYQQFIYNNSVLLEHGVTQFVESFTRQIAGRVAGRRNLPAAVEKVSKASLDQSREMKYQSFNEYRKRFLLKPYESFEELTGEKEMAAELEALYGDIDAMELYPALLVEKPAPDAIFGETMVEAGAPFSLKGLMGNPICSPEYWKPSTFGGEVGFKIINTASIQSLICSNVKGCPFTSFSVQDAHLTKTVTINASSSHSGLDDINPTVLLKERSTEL
Procedure: as §1

[1] = test system: L929 mouse fibroblast (normal) cells; assay: MTT cytotoxicity assay, L929 normal cells; format: cell-based; conditions: MTT, L929 mouse fibroblast cells, mean ± SD
Procedure: A549 human lung adenocarcinoma and L929 mouse fibroblast cell lines were obtained from American Type Culture Collection (ATCC) (Manassas, VA, USA). Both cell lines were cultured, and drug treatments were carried out as previously reported.
MTT assay was conducted as previously explained in the literature with small modifications. Cisplatin was used as a positive control. The assay was performed in triplicate. IC50 data (µM) were expressed as mean ± SD.

In the case of `O=C(Cc1c[nH]c2ccccc12)NN=Cc1ccc(N2CCCC2)cc1` [Compound 3a, 2-(1H-Indol-3-yl)-N′-[4-(pyrrolidin-1-yl)benzylidene]acetohydrazide], the IC50 (COX-1) is reported as 10.3 ± 0.35 µM, the “SI (IC50 for COX-1/IC50 for COX-2)” value (COX-1) is reported as 0.83 and the IC50 (COX-2) is reported as 12.5 ± 0.71 µM. For the same compound, the IC50 [1] was 17.3 ± 2.08 µM and the melting point was 302 to 303 °C.

In the case of `O=C(Cc1c[nH]c2ccccc12)NN=Cc1ccc(N2CCCCC2)cc1` [Compound 3c, 2-(1H-Indol-3-yl)-N′-[4-(piperidin-1-yl)benzylidene]acetohydrazide], the IC50 (COX-1) is reported as > 100 µM, the IC50 (COX-2) is reported as > 100 µM and the IC50 [1] is reported as 21.3 ± 0.58 µM. The melting point was 265 to 266 °C.

For `CN1CCN(c2ccc(C=NNC(=O)Cc3c[nH]c4ccccc34)cc2)CC1` [Compound 3d, 2-(1H-Indol-3-yl)-N′-[4-(4-methylpiperazin-1-yl)benzylidene]acetohydrazide], the IC50 (COX-1) was 78.5 ± 8.5 µM, the “SI (IC50 for COX-1/IC50 for COX-2)” value (COX-1) was <0.79 and the IC50 (COX-2) was > 100 µM. It also gave an IC50 [1] of 20 ± 1.73 µM and a melting point of 218 to 220 °C.

In the case of `CS(=O)(=O)c1ccc(C=NNC(=O)Cc2c[nH]c3ccccc23)cc1` [Compound 3e, 2-(1H-Indol-3-yl)-N′-(4-methylsulfonylbenzylidene)acetohydrazide], the IC50 (COX-1) is reported as 83.8 ± 6.25 µM, the “SI (IC50 for COX-1/IC50 for COX-2)” value (COX-1) is reported as 2.39 and the IC50 (COX-2) is reported as 35 ± 9.9 µM. The IC50 [1] was 85 ± 17.3 µM and the melting point was 264 to 265 °C.

For `CC(=NNC(=O)Cc1c[nH]c2ccccc12)c1ccc(S(C)(=O)=O)cc1` [Compound 3f, 2-(1H-Indol-3-yl)-N′-[1-(4-methylsulfonylphenyl)ethylidene]acetohydrazide], the IC50 (COX-1) was 93.7 ± 6.25 µM, the “SI (IC50 for COX-1/IC50 for COX-2)” value (COX-1) was 1.84 and the IC50 (COX-2) was 51 ± 12.7 µM. The IC50 [1] was < 3.9 µM and the melting point was 204 to 205 °C.

With `CC(=NNC(=O)Cc1c[nH]c2ccccc12)c1ccc(N2CCOCC2)cc1` [Compound 3g, 2-(1H-Indol-3-yl)-N′-[1-(4-morpholinophenyl)ethylidene]acetohydrazide] the IC50 (COX-1) was 51 ± 1 µM, the “SI (IC50 for COX-1/IC50 for COX-2)” value (COX-1) was 0.97 and the IC50 (COX-2) was 52.5 ± 0.71 µM. The IC50 [1] was < 3.9 µM and the melting point was 198 to 199 °C.

In the case of `O=C(Cc1c[nH]c2ccccc12)NN=Cc1ccc(OCCN2CCOCC2)cc1` [Compound 3h, 2-(1H-Indol-3-yl)-N′-[4-(2-morpholinoethoxy)benzylidene]acetohydrazide], the IC50 (COX-1) is reported as 38.5 ± 1.5 µM, the “SI (IC50 for COX-1/IC50 for COX-2)” value (COX-1) is reported as 0.76 and the IC50 (COX-2) is reported as 50.5 ± 0.7 µM. The IC50 [1] was < 3.9 µM and the melting point was 132 to 135 °C.

With `Cn1cc(C=NNC(=O)Cc2c[nH]c3ccccc23)c2ccccc21` [Compound 3i, 2-(1H-Indol-3-yl)-N′-[(1-methyl-1H-indol-3-yl)methylene]acetohydrazide] the IC50 (COX-1) was 31.2 ± 1.25 µM, the “SI (IC50 for COX-1/IC50 for COX-2)” value (COX-1) was <0.31 and the IC50 (COX-2) was > 100 µM. For the same compound, the IC50 [1] was 42.3 ± 0.58 µM and the melting point was 221 to 224 °C.

With `COc1ccc2[nH]cc(C=NNC(=O)Cc3c[nH]c4ccccc34)c2c1` [Compound 3j, 2-(1H-Indol-3-yl)-N′-[(5-methoxy-1H-indol-3-yl)methylene]acetohydrazide] the IC50 (COX-1) was > 100 µM, the “SI (IC50 for COX-1/IC50 for COX-2)” value (COX-1) was >2.25 and the IC50 (COX-2) was 44.5 ± 6.36 µM. For the same compound, the IC50 [1] was 43 ± 1.73 µM.

For `O=C(Cc1c[nH]c2ccccc12)NNC(=S)Nc1ccc(C(F)(F)F)cc1` [Compound 4b, 4-(4-Trifluoromethylphenyl)-1-[2-(1H-indol-3-yl)acetyl]thiosemicarbazide], the IC50 (COX-1) was > 100 µM, the “SI (IC50 for COX-1/IC50 for COX-2)” value (COX-1) was >1.63 and the IC50 (COX-2) was 61.5 ± 0.71 µM. It also gave an IC50 [1] of 22.7 ± 2.08 µM and a melting point of 184 to 186 °C.

With `N#Cc1ccc(NC(=S)NNC(=O)Cc2c[nH]c3ccccc23)cc1` [Compound 4c, 4-(4-Cyanophenyl)-1-[2-(1H-indol-3-yl)acetyl]thiosemicarbazide] the IC50 (COX-1) was > 100 µM, the “SI (IC50 for COX-1/IC50 for COX-2)” value (COX-1) was >1.77 and the IC50 (COX-2) was 56.5 ± 4.49 µM. For the same compound, the IC50 [1] was 26.3 ± 3.51 µM and the melting point was 180 to 182 °C.

With `O=C(Cc1c[nH]c2ccccc12)NNC(=S)Nc1ccc(S(=O)(=O)N2CCCCC2)cc1` [Compound 4d, 4-[4-(Piperidin-1-ylsulfonyl)phenyl]-1-[2-(1H-indol-3-yl)acetyl]thiosemicarbazide] the IC50 (COX-1) was > 100 µM, the “SI (IC50 for COX-1/IC50 for COX-2)” value (COX-1) was >1.69 and the IC50 (COX-2) was 59 ± 8.48 µM. For the same compound, the IC50 [1] was 45.7 ± 6.03 µM and the melting point was 182 to 184 °C.

For `O=C(Cc1c[nH]c2ccccc12)NNC(=S)Nc1ccc(-n2cccn2)cc1` [Compound 4e, 4-[4-(1H-Pyrazol-1-yl)phenyl]-1-[2-(1H-indol-3-yl)acetyl]thiosemicarbazide], the IC50 (COX-1) was > 100 µM, the “SI (IC50 for COX-1/IC50 for COX-2)” value (COX-1) was >3.17 and the IC50 (COX-2) was 31.5 ± 2.12 µM. It also gave an IC50 [1] of 62.3 ± 7.51 µM and a melting point of 196 to 198 °C.

For `O=C(Cc1c[nH]c2ccccc12)NNC(=S)Nc1ccc2c(c1)OCO2` [Compound 4f, 4-(1,3-Benzodioxol-5-yl)-1-[2-(1H-indol-3-yl)acetyl]thiosemicarbazide], the IC50 (COX-1) was > 100 µM, the “SI (IC50 for COX-1/IC50 for COX-2)” value (COX-1) was >1.94 and the IC50 (COX-2) was 51.5 ± 0.71 µM. The IC50 [1] was 14 ± 5.29 µM and the melting point was 168 to 170 °C.

With `O=C(Cc1c[nH]c2ccccc12)NNC(=S)Nc1ccc(OCc2ccccc2)cc1` [Compound 4g, 4-[4-(Benzyloxy)phenyl]-1-[2-(1H-indol-3-yl)acetyl]thiosemicarbazide] the IC50 (COX-1) was > 100 µM, the “SI (IC50 for COX-1/IC50 for COX-2)” value (COX-1) was >1.68 and the IC50 (COX-2) was 59.5 ± 2.12 µM. For the same compound, the IC50 [1] was 14 ± 3.46 µM and the melting point was 198 to 200 °C.
